Test results from US8552067B2, “Macromolecular conjugates of cystic fibrosis transmembrane conductance regulator protein inhibitors and uses therefor” (The Regents of the University of California, priority 2006, dated 2013).
Structures can show the parent of a compound that is named as a salt. Values belong to the molecule of their own block, whether it stands above or below them.

What was measured:
wildtype CFTR [1] = molecular target: T1, wildtype CFTR (Homo sapiens, UniProt P13569); assay: Whole-cell patch-clamp on FRT cells stably expressing wildtype CFTR; conditions: after stepping membrane potential to +80 mV; MalH-ConA 250 nM, GlyH-101 5 μM
T1 sequence (P13569 whole entry): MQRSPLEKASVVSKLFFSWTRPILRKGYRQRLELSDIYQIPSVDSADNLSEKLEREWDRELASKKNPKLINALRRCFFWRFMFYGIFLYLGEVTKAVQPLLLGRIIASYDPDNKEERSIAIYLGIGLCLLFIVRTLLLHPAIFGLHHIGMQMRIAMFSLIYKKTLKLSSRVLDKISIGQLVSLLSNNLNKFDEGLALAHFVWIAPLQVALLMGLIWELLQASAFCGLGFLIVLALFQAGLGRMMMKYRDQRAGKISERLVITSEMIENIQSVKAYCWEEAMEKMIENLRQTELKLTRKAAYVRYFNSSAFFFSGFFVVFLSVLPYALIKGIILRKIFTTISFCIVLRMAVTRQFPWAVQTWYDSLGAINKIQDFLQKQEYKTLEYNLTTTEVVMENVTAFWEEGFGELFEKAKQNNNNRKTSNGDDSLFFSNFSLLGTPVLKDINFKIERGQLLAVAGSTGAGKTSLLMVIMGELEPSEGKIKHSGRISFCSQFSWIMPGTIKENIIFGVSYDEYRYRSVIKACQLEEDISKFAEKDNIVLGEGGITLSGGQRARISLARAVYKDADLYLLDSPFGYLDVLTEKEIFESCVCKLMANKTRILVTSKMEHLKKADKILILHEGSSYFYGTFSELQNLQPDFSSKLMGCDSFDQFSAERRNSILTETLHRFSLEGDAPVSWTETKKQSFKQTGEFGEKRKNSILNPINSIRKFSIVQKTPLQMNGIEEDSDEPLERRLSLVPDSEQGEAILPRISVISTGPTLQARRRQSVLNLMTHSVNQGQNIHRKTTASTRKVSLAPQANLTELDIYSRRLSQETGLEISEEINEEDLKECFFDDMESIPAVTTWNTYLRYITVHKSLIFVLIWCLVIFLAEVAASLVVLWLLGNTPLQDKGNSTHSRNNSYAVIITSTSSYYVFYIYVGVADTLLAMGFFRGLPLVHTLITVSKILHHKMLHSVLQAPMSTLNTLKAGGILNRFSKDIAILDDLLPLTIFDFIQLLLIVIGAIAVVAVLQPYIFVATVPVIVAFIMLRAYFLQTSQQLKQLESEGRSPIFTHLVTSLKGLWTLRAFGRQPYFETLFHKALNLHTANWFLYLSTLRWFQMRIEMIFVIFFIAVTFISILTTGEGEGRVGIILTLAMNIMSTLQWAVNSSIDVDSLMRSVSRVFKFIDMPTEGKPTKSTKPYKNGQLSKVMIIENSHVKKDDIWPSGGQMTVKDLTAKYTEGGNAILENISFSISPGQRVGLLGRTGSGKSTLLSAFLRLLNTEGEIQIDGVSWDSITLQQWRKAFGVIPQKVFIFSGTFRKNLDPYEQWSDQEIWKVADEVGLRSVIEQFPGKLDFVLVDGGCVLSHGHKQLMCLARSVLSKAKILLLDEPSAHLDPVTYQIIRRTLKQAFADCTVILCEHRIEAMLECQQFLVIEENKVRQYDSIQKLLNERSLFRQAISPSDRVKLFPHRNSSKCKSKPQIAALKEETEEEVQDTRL

CFTR = molecular target: T2, CFTR (Homo sapiens, UniProt P13569); assay: Reversibility of CFTR chloride current inhibition after washout; assay type: cell-based; conditions: after 95-100% inhibition; MalH-ConA over six hours
T2 construct: expressed in transfected cells; host or cells: Fischer rat thyroid (FRT) cells
T2 sequence (P13569 whole entry): as above
Description: Chloride current increased slowly with incubation time, with 50% ‘reversal’ at approximately 8 h.

[2] = Water solubility (statement); assay type: physicochemical
wildtype CFTR [3] = molecular target: T1, wildtype CFTR; assay: Apical membrane chloride current (short-circuit current) in FRT epithelial cells expressing human wildtype CFTR

- time constant of current decay (single exponential) (wildtype CFTR [1]): 8 to 10 ms
Structure (SMILES): O=C(CNc1ccc2ccccc2c1)NN=Cc1cc(Br)c(O)c(Br)c1O [GlyH-101, N^2-naphthalenyl-[3,5-[dibromo-2,4-dihydroxyphenyl)methylene]glycine hydrazide]

Structure (SMILES): O=C(NN=Cc1cc(Br)c(O)c(Br)c1)C(Nc1ccc2ccccc2c1)C(=O)NNC(=S)Nc1ccc(C=Cc2ccc(N=C=S)cc2S(=O)(=O)O)c(S(=O)(=O)O)c1 (stereo not shown) [MalH-DIDS, 2-naphthalenylamino-[(3,5-dibromo-4-dihydroxyphenyl)methylene]hydrazide [[[4-[2-(4-isothiocyanato-2-sulfophenypethenyl]-2-sulfophenyl]amino]thioxomethyl]hydrazide-propanedioic acid, disodium salt]
- reversal of CFTR inhibition after washout and forskolin re-addition (CFTR): Near-complete and rapid reversal
- water solubility [2]: highly water soluble
- IC50 (wildtype CFTR [3]): 1000 nM
- effect of mannose on CFTR inhibitory potency (wildtype CFTR [3]; 200 mM mannose): did not affect
- effect of heat denaturation on CFTR inhibition activity (wildtype CFTR [3]; 100° C. for 5 min): did not affect
- effect of EDTA on CFTR inhibition potency (wildtype CFTR [3]; EDTA in buffer (chelation of Ca2+ and Mg2+)): did not affect
- effect of excess unconjugated ConA on CFTR inhibition potency (wildtype CFTR [3]; excess ConA (5 μM) added before compound): did not affect
- effect of acid incubation on capability to inhibit CFTR (wildtype CFTR [3]; incubation at either pH 1.5 or pH 5.2): did not affect
- CFTR inhibition after pronase treatment (wildtype CFTR [3]; pronase 8 hours, pH 8, 37° C.): not affected
